From US11845760B2, “PRMT5 inhibitors” (AMGEN INC., priority 2020, dated 2023)

Experiments:
HCT116 MTAP null cells = test: HCT116 MTAP null cell line proliferation (CellTiter-Glo cell viability, 6 days); format: cell-based; settings: HCT116-MTAP null, 144 h, HCT116 MTAP null cells, 6 days of treatment, CellTiter-Glo cell viability; read-out: HCT-116 MTAP null IC50
Method in brief: (§1)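 Viability by CellTiter-Glo after 6 days' drug exposure in wild-type HCT116 and its MTAP-null knockout, with DMSO-only control. Dosing used either 1:3 steps (top 1 or 10 μM) or 22 points in 1:2 steps (top 10 or 50 μM). IC50 taken where the fitted curve crosses 50% of control.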

HCT116 WT cells = test: HCT116 WT cell line proliferation (CellTiter-Glo cell viability, 6 days); format: cell-based; settings: Homo sapiens, HCT-116, 144 h, HCT116 WT (parent) cells, 6 days of treatment, CellTiter-Glo cell viability; read-out: HCT-116 WT IC50
Method in brief: as §1

Work on `Cn1ncc2c3cc(C(=O)N4CC[C@H](c5ccc(C(F)(F)F)cc5)C4)c(F)cc3nc(N)c21` [Example 437, (4-amino-7-fluoro-3-methyl-3H-pyrazolo[3,4-c]quinolin-8-yl)((3R)-3-(4-(trifluoromethyl)phenyl)-1-pyrrolidinyl)methanone] yielded an IC50 (HCT116 MTAP null cells) of 924 nM and an IC50 (HCT116 WT cells) of 16000 nM.
`C[C@H]1OCc2c1c(N)nc1ccc(C(=O)N3CC[C@](F)(c4ccc(C(F)(F)F)cc4)C3)cc21` [Example 438, ((3R)-4-amino-3-methyl-1,3-dihydrofuro[3,4-c]quinolin-8-yl)((3S)-3-fluoro-3-(4-(trifluoromethyl)phenyl)-1-pyrrolidinyl)methanone] was tested, and the IC50 (HCT116 MTAP null cells) was 878 nM and the IC50 (HCT116 WT cells) was 15200 nM.
`Cn1ncc2c(N)nc3cc(F)c(C(=O)N4CC(O)(c5ccc(C(F)(F)F)cc5)C4)cc3c21` [Example 439, (4-amino-7-fluoro-1-methyl-1H-pyrazolo[4,3-c]quinolin-8-yl)(3-hydroxy-3-(4-(trifluoromethyl)phenyl)-1-azetidinyl)methanone] showed an IC50 (HCT116 MTAP null cells) of 21 nM and an IC50 (HCT116 WT cells) of 887 nM.
Compound `Cn1ncc2c(N)nc3cc(Cl)c(C(=O)N4CC(c5ccc(C(F)(F)F)cc5)C4)cc3c21` [Example 440, (4-amino-7-chloro-1-methyl-1H-pyrazolo[4,3-c]quinolin-8-yl)(3-(4-(trifluoromethyl)phenyl)-1-azetidinyl)methanone] has an IC50 (HCT116 MTAP null cells) of 14 nM and an IC50 (HCT116 WT cells) of 602 nM.
`Cn1ncc2c(N)nc3cc(Cl)c(C(=O)N4CC(c5ccc(C(F)(F)F)cn5)C4)cc3c21` [Example 442, (4-amino-7-chloro-1-methyl-1H-pyrazolo[4,3-c]quinolin-8-yl)(3-(5-(trifluoromethyl)-2-pyridinyl)-1-azetidinyl)methanone] was tested, and the IC50 (HCT116 MTAP null cells) was 40 nM and the IC50 (HCT116 WT cells) was 3610 nM.
`Cn1ncc2c(N)nc3cc(Cl)c(C(=O)N4CC[C@H](c5ccc(C(F)(F)F)cc5)C4)cc3c21` [Example 443, (4-amino-7-chloro-1-methyl-1H-pyrazolo[4,3-c]quinolin-8-yl)((3R)-3-(4-(trifluoromethyl)phenyl)-1-pyrrolidinyl)methanone] was tested, and the IC50 (HCT116 MTAP null cells) was 13 nM and the IC50 (HCT116 WT cells) was 793 nM.
`Cn1ncc2c(N)nc3cc(Cl)c(C(=O)N4CC(O)(c5ccc(C(F)(F)F)cc5)C4)cc3c21` [Example 444, (4-amino-7-chloro-1-methyl-1H-pyrazolo[4,3-c]quinolin-8-yl)(3-hydroxy-3-(4-(trifluoromethyl)phenyl)-1-azetidinyl)methanone] was tested, and the IC50 (HCT116 MTAP null cells) was 18 nM and the IC50 (HCT116 WT cells) was 499 nM.
Work on `Cn1ncc2c(N)nc3cc(F)c(C(=O)N4C[C@@H](CO)[C@H](c5ccc(C(F)(F)F)cc5F)C4)cc3c21` [Example 446, (4-amino-7-fluoro-1-methyl-1H-pyrazolo[4,3-c]quinolin-8-yl)((3R,4S)-3-(2-fluoro-4-(trifluoromethyl)phenyl)-4-(hydroxymethyl)-1-pyrrolidinyl)methanone] yielded an IC50 (HCT116 MTAP null cells) of 14 nM and an IC50 (HCT116 WT cells) of 240 nM.
For `Cn1ncc2c(N)nc3ccc(C(=O)N4CCOC[C@@H]4c4ccc(S(F)(F)(F)(F)F)cc4)cc3c21` [Example 447, (4-amino-1-methyl-1H-pyrazolo [4,3-c]quinolin-8-yl)((3S)-3-(4-(pentafluoro-lambda~6~-sulfanyl)phenyl)-4-morpholinyl)methanone], the IC50 (HCT116 MTAP null cells) was 13 nM and the IC50 (HCT116 WT cells) was 602 nM.
In the case of `Cn1ncc2c(N)nc3cnc(C(=O)N4CCOC[C@@H]4c4ccc(S(F)(F)(F)(F)F)cc4)cc3c21` [Example 448, (4-amino-1-methyl-1H-pyrazolo [4,3-c][1,7]naphthyridin-8-yl)((3S)-3-(4-(pentafluoro-lambda~6~-sulfanyl)phenyl)-4-morpholinyl)methanone], the IC50 (HCT116 MTAP null cells) is reported as 6 nM and the IC50 (HCT116 WT cells) is reported as 130 nM.
For `Cn1ncc2c(N)nc3cc(Cl)c(C(=O)N4C[C@@H](CO)[C@H](c5ccc(C(F)(F)F)cc5F)C4)cc3c21` [Example 449, (4-amino-7-chloro-1-methyl-1H-pyrazolo[4,3-c]quinolin-8-yl)((3R,4S)-3-(2-fluoro-4-(trifluoromethyl)phenyl)-4-(hydroxymethyl)-1-pyrrolidinyl)methanone], the IC50 (HCT116 MTAP null cells) was 7 nM and the IC50 (HCT116 WT cells) was 145 nM.
In the case of `Cn1ncc2c(N)nc3cc(F)c(C(=O)N4CCOC[C@@H]4c4ccc(S(F)(F)(F)(F)F)cc4)cc3c21` [Example 450, (4-amino-7-fluoro-1-methyl-1H-pyrazolo [4,3-c]quinolin-8-yl)((3S)-3-(4-(pentafluoro-lambda~6~-sulfanyl)phenyl)-4-morpholinyl)methanone], the IC50 (HCT116 MTAP null cells) is reported as 5 nM and the IC50 (HCT116 WT cells) is reported as 40 nM.
`Cn1ncc2c(N)nc3cnc(C(=O)N4CCOC[C@@H]4c4ccc(OC(F)F)nn4)cc3c21` [Example 451, (4-amino-1-methyl-1H-pyrazolo[4,3-c][1,7]naphthyridin-8-yl)((3S)-3-(6-(difluoromethoxy)-3-pyridazinyl)-4-morpholinyl)methanone] was tested, and the IC50 (HCT116 MTAP null cells) was 162 nM and the IC50 (HCT116 WT cells) was 15400 nM.
For `Nc1nc2ccc(C(=O)N3CCOC[C@@H]3c3ccc(OC(F)(F)F)cc3)cc2c2c1COCC2` [Example 484, (5-amino-2,4-dihydro-1H-pyrano[3,4-c]quinolin-9-yl)-[(3S)-3-[4-(trifluoromethoxy)phenyl]morpholin-4-yl]methanone], the IC50 (HCT116 MTAP null cells) was 656 nM and the IC50 (HCT116 WT cells) was over 10000 nM.
With `Nc1nc2cnc(C(=O)N3CCOC[C@@H]3c3ccc(C(F)(F)F)cc3)cc2c2cnccc12` [Example 501, (5-aminopyrido[4,3-c][1,7]naphthyridin-9-yl)((3S)-3-(4-(trifluoromethyl)phenyl)-4-morpholinyl)methanone] the IC50 (HCT116 MTAP null cells) was 37 nM and the IC50 (HCT116 WT cells) was 689 nM.
In the case of `Nc1nc2ccc(C(=O)N3CCOC[C@@H]3c3ccc(C(F)(F)F)cc3)cc2c2cncnc12` [Example 502, (5-aminopyrimido[4,5-c]quinolin-9-yl)((3S)-3-(4-(trifluoromethyl)phenyl)-4-morpholinyl)methanone], the IC50 (HCT116 MTAP null cells) is reported as 819 nM and the IC50 (HCT116 WT cells) is reported as 11600 nM.
Compound `Nc1nc2ccc(C(=O)N3CCOC[C@@H]3c3ccc(C(F)(F)F)cc3)cc2c2cnccc12` [Example 503, (5-aminobenzo[c][2,6]naphthyridin-9-yl)((3S)-3-(4-(trifluoromethyl)phenyl)-4-morpholinyl)methanone] has an IC50 (HCT116 MTAP null cells) of 39 nM and an IC50 (HCT116 WT cells) of 867 nM.
In the case of `Nc1nc2cnc(C(=O)N3CCOC[C@@H]3c3ccc(C(F)(F)F)cc3)cc2c2cncnc12` [Example 504, (5-aminopyrimido[4,5-c][1,7]naphthyridin-9-yl)((3S)-3-(4-(trifluoromethyl)phenyl)-4-morpholinyl)methanone], the IC50 (HCT116 MTAP null cells) is reported as 810 nM and the IC50 (HCT116 WT cells) is reported as 6380 nM.
`Nc1nc2cnc(C(=O)N3CCOC[C@@H]3c3ccc(OC(F)(F)F)cc3)cc2c2c1COC2` [Example 506, (4-amino-1,3-dihydrofuro[3,4-c][1,7]naphthyridin-8-yl)-[(3S)-3-[4-(trifluoromethoxy)phenyl]morpholin-4-yl]methanone] showed an IC50 (HCT116 MTAP null cells) of 61 nM and an IC50 (HCT116 WT cells) of 2530 nM.
In the case of `Nc1nc2ncc(C(=O)N3CCOC[C@@H]3c3ccc(OC(F)(F)F)cc3)cc2c2c1COC2` [Example 507, (4-amino-1,3-dihydrofuro[3,4-c][1,8]naphthyridin-8-yl)-[(3S)-3-[4-(trifluoromethoxy)phenyl]morpholin-4-yl]methanone], the IC50 (HCT116 MTAP null cells) is reported as 843 nM and the IC50 (HCT116 WT cells) is reported as over 10000 nM.
In the case of `Nc1nc2ccc(C(=O)N3CCOC[C@@H]3c3ccc(C(F)(F)C(F)(F)F)cc3)cc2c2c1COC2` [Example 510, (4-amino-1,3-dihydrofuro[3,4-c]quinolin-8-yl)((3S)-3-(4-(pentafluoroethyl)phenyl)-4-morpholinyl)methanone], the IC50 (HCT116 MTAP null cells) is reported as 43 nM and the IC50 (HCT116 WT cells) is reported as 1580 nM.
Compound `Nc1nc2cnc(C(=O)N3CCOC[C@@H]3c3ccc(C(F)(F)C(F)(F)F)cc3)cc2c2c1COC2` [Example 511] has an IC50 (HCT116 MTAP null cells) of 43 nM and an IC50 (HCT116 WT cells) of 1130 nM.
Compound `Nc1nc2cnc(C(=O)N3CCOC[C@@H]3c3ccc(OC(F)(F)F)cc3)cc2c2c1CCC2` [Example 514, (6-amino-8,9-dihydro-7H-cyclopenta[c][1,7]naphthyridin-2-yl)((3S)-3-(4-(trifluoromethoxy)phenyl)-4-morpholinyl)methanone] has an IC50 (HCT116 MTAP null cells) of 210 nM and an IC50 (HCT116 WT cells) of 2590 nM.
`C[C@@H]1COC[C@H](c2ccc(C(F)(F)F)cn2)N1C(=O)c1cc2c3c(c(N)nc2cn1)CCC3` [Example 515, (6-amino-8,9-dihydro-7H-cyclopenta[c][1,7]naphthyridin-2-yl)((3R,5S)-3-methyl-5-(5-(trifluoromethyl)-2-pyridinyl)-4-morpholinyl)methanone] gave an IC50 (HCT116 MTAP null cells) of 47 nM and an IC50 (HCT116 WT cells) of 541 nM.
Work on `Nc1nc2cnc(C(=O)N3CCOC[C@@H]3c3ccc(OC(F)F)cn3)cc2c2c1COC2` [Example 516, (4-amino-1,3-dihydrofuro[3,4-c][1,7]naphthyridin-8-yl)((3S)-3-(5-(difluoromethoxy)-2-pyridinyl)-4-morpholinyl)methanone] yielded an IC50 (HCT116 MTAP null cells) of 211 nM and an IC50 (HCT116 WT cells) of 9120 nM.
Work on `C[C@@H]1COC[C@H](c2ccc(C(F)(F)F)cn2)N1C(=O)c1cc2c(cc1F)nc(N)c1c2cnn1C` [Example 517, (4-amino-7-fluoro-3-methyl-3H-pyrazolo[3,4-c]quinolin-8-yl)((3R,5S)-3-methyl-5-(5-(trifluoromethyl)-2-pyridinyl)-4-morpholinyl)methanone] yielded an IC50 (HCT116 MTAP null cells) of 8 nM and an IC50 (HCT116 WT cells) of 151 nM.
With `Cn1ncc2c3cc(C(=O)N4CCOC[C@@H]4c4ccc(C(F)(F)F)cc4)c(F)cc3nc(N)c21` [Example 518, (4-amino-7-fluoro-3-methyl-3H-pyrazolo[3,4-c]quinolin-8-yl)((3S)-3-(4-(trifluoromethyl)phenyl)-4-morpholinyl)methanone] the IC50 (HCT116 MTAP null cells) was 86 nM and the IC50 (HCT116 WT cells) was 4690 nM.
For `C[C@@H]1COC[C@H](c2ccc(C(F)(F)F)cn2)N1C(=O)c1cc2c(cc1F)nc(N)c1cnn(C)c12` [Example 519, (4-amino-7-fluoro-1-methyl-1H-pyrazolo[4,3-c]quinolin-8-yl)((3R,5S)-3-methyl-5-(5-(trifluoromethyl)-2-pyridinyl)-4-morpholinyl)methanone], the IC50 (HCT116 MTAP null cells) was 4 nM and the IC50 (HCT116 WT cells) was 26 nM.
